Where “and” joins values, the source holds several entries; their conditions need not be identical. Identical values can stand only once.
Tests used:
[1] = target: Glycogen synthase kinase-3 beta (Homo sapiens, UniProt P49841); assay: TR-FRET Assay
Outline: (§1)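 Kinase activity, measured after a 30-minute compound preincubation, was stopped with EDTA and quantified by TR-FRET using a Tb-labelled pSer641 antibody paired with streptavidin-d2.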

[2] = target: Glycogen synthase kinase-3 alpha (Homo sapiens, UniProt P49840); assay: TR-FRET Assay
Chain of Glycogen synthase kinase-3 alpha (P49840 whole entry): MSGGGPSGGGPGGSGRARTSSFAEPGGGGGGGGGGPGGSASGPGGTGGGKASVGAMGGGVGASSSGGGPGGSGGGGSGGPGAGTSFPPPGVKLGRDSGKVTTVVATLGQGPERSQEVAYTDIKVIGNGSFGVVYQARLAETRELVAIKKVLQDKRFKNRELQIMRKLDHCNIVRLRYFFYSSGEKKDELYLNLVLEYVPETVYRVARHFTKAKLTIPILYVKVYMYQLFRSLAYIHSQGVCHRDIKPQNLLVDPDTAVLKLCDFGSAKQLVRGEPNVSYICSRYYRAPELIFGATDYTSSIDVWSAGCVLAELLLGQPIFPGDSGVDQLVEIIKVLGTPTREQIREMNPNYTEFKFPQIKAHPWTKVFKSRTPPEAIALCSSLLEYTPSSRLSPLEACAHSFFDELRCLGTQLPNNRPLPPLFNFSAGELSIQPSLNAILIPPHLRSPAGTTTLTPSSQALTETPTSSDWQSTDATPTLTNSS
Outline: as §1

Chain of Glycogen synthase kinase-3 beta (P49841 whole entry): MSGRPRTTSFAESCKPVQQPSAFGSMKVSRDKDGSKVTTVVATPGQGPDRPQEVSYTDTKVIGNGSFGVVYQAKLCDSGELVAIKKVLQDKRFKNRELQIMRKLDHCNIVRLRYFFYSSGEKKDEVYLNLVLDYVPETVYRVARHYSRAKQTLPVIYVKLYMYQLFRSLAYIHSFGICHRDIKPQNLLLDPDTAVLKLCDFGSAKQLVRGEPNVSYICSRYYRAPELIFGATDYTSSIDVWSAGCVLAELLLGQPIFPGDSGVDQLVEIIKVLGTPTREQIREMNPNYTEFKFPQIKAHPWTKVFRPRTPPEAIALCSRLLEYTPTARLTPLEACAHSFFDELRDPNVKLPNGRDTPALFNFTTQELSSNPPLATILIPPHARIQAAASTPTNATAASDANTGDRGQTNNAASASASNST

| SMILES | IC50 [1] | IC50 [2] |
| --- | --- | --- |
| CC1(C)CC(=O)C2=C(C1)NC1=C(CN=N1)C21CS(=O)(=O)C1 [US20250313563, Compound 912170] | > 5 µM | 1 to 5 µM |
| CC[C@]1(c2cccc(-c3cnn4ccncc34)c2)C2=CN=NC2NC2=C1C(=O)NC(C)(C)C2 (stereo not given in full) [US20250313563, Compound 949263] | > 5 µM | > 5 µM |
| COc1ccc(S(=O)(=O)N2CCC3(CC2)C2=C(N=NC2)NC2=C3C(=O)CC(C)(C)C2)cc1 [US20250313563, Compound 917143] | < 0.1 µM | < 0.1 µM |
| CC[C@]1(c2cccc(CN(C)c3cc(C)cc(C)n3)c2)C2=CN=NC2NC2=C1C(=O)CC(C)(C)C2 (stereo not given in full) [US20250313563, Compound 945615] | > 5 µM | > 5 µM |
| CC[C@@]1(c2cccc(S(C)(=O)=O)c2)C2=C(CC(C)(C)NC2=O)NC2N=NC(C)=C21 (stereo not given in full) [US20250313563, Compound 947815] | > 5 µM | 1 to 5 µM |
| CC[C@]1(c2cccc(Br)c2)C2=C(C[C@@H](C)CC2=O)NC2N=NC(C(F)(F)F)=C21 (stereo not given in full) [US20250313563, Compound 828847] | < 0.1 µM | < 0.1 µM |
| CC[C@@]1(c2cccc(N(c3cccnc3)C(C)C)c2)C2=CN=NC2NC2=C1C(=O)CC(C)(C)C2 (stereo not given in full) [US20250313563, Compound 917087] | 1 to 5 µM | 0.1 to 1 µM |
| CCN(c1cccnc1)c1cccc([C@]2(CC)C3=CN=NC3NC3=C2C(=O)CC(C)(C)C3)c1 (stereo not given in full) [US20250313563, Compound 917089] | 1 to 5 µM | 0.1 to 1 µM |
| CCC1(c2cccc(-c3cnn4c3CCCC4)c2)C2=C(CC(C)(C)NC2=O)NC2N=NC(C)=C21 (stereo not given) [US20250313563, Compound 945993] | 0.1 to 1 µM | < 0.1 µM |
| CC1(C)CC(=O)C2=C(C1)NC1=C(CN=N1)C21COC2(CN(C(=O)C(C)(F)F)C2)C1 (stereo not given) [US20250313563, Compound 947275] | < 0.1 µM and 0.1 to 1 µM | < 0.1 µM and 0.1 to 1 µM |
| CC[C@@]1(c2cccc(N(C)c3cccc(C(F)(F)F)n3)c2)C2=CN=NC2NC2=C1C(=O)CC(C)(C)C2 (stereo not given in full) [US20250313563, Compound 927338] | 0.1 to 1 µM | < 0.1 µM |
| CCC1(c2cccc(-c3cc(C)ncc3OC)c2)C2=CN=NC2NC2=C1C(=O)CC(C)(C)C2 (stereo not given) [US20250313563, Compound 945468] | 0.1 to 1 µM | < 0.1 µM |
| CC(C)(C)CC(=O)N1CC2(C1)CC1(CO2)C2=C(N=NC2)NC2=C1C(=O)CC(C)(C)C2 (stereo not given) [US20250313563, Compound 947301] | 1 to 5 µM | 0.1 to 1 µM |
| CC[C@@]1(c2cccc(-c3ccncc3F)c2)C2=C(CC(C)(C)NC2=O)NC2N=NC(C(F)(F)F)=C21 (stereo not given in full) [US20250313563, Compound 948777] | < 0.1 µM | < 0.1 µM |
| CCC1(c2cccc(N3CCCC3)c2)C2=C(CC(C)(C)CC2=O)NC2N=NC(C)=C21 (stereo not given) [US20250313563, Compound 874314] | < 0.1 µM | < 0.1 µM |
| CC[C@]1(c2cccc(C(F)(F)F)c2)C2=CN=NC2NC2=C1C(=O)N(Cc1ccccc1)CC2 (stereo not given in full) [US20250313563, Compound 912005] | 1 to 5 µM | 0.1 to 1 µM |
| CCC1(c2cccc(C(F)(F)F)c2)C2=CN=NC2NC2=C1C(=O)NCC2 (stereo not given) [US20250313563, Compound 870263] | > 5 µM | 0.1 to 1 µM |
| CC[C@]1(c2cccc(-c3ccnc(C)c3)c2)C2=CN=NC2NC2=C1C(=O)CC(C)(C)C2 (stereo not given in full) [US20250313563, Compound 865169] | 0.1 to 1 µM and > 5 µM | < 0.1 µM and 0.1 to 1 µM |
| CC[C@@]1(c2cccc(-c3ccnc4c3CCC4)c2)C2=C(CC(C)(C)NC2=O)NC2N=NC(C(F)(F)F)=C21 (stereo not given in full) [US20250313563, Compound 948778] | < 0.1 µM and 1 to 5 µM | < 0.1 µM and 0.1 to 1 µM |
| CC(C)(C)CC1=C2C(N=N1)NC1=C(C(=O)CC(C)(C)C1)[C@@]21CCc2ccc(F)cc21 (stereo not given in full) [US20250313563, Compound 789505] | < 0.1 µM | 0.1 to 1 µM |
| CC[C@@]1(c2cccc(-c3c4c(nn3C)CCCC4)c2)C2=CN=NC2NC2=C1C(=O)NC(C)(C)C2 (stereo not given in full) [US20250313563, Compound 948652] | > 5 µM | 0.1 to 1 µM |
| CC[C@@]1(c2cccc(-c3cnn(C)c3)c2)C2=CN=NC2NC2=C1C(=O)CC(C)(C)[C@@H]2F (stereo not given in full) [US20250313563, Compound 957511] | 0.1 to 1 µM and > 5 µM | < 0.1 µM and 0.1 to 1 µM |
| CC[C@]1(c2cccc(-c3ccncc3C(F)(F)F)c2)C2=CN=NC2NC2=C1C(=O)NC(C)(C)C2 (stereo not given in full) [US20250313563, Compound 949516] | > 5 µM | 1 to 5 µM |

| SMILES | IC50 [1] | IC50 [2] |
| --- | --- | --- |
| CC[C@]1(c2cccc(C(F)(F)F)c2)C2=C(N=NC2)NC2=C1C(=O)N[C@H]2C [US20250313563, Compound 945379] | 1 to 5 µM | 0.1 to 1 µM |
| CCC1(c2ccc(C)cc2)C2=C(CC(C)(C)CC2=O)NC2N=NC(C(F)(F)F)=C21 (stereo not given) [US20250313563, Compound 883866] | < 0.1 µM | < 0.1 µM |
| CCC1(c2cccc(N3CCCC[C@H]3C)c2)C2=CN=NC2NC2=C1C(=O)CC(C)(C)C2 (stereo not given in full) [US20250313563, Compound 885228] | 0.1 to 1 µM | < 0.1 µM |
| CC1(C)CC(=O)C2=C(C1)NC1=C(CN=N1)C21CCN(S(=O)(=O)c2cc(Cl)ccc2Cl)CC1 [US20250313563, Compound 948122] | 0.1 to 1 µM | < 0.1 µM |
| CC[C@]1(c2cccc(-c3cnn(C)c3C)c2)C2=C(CC(C)(C)NC2=O)NC2N=NC(C)=C21 (stereo not given in full) [US20250313563, Compound 945727] | > 5 µM | > 5 µM |
| CCC1(c2cccc(-c3cc(C)ncc3F)c2)C2=C(CC(C)(C)NC2=O)NC2N=NC(C(F)(F)F)=C21 (stereo not given) [US20250313563, Compound 948762] | < 0.1 µM | < 0.1 µM |
| CC[C@@]1(c2cccc(-c3cc(-c4ccccc4)nn3C(C)C)c2)C2=CN=NC2NC2=C1C(=O)NC(C)(C)C2 (stereo not given in full) [US20250313563, Compound 952411] | > 5 µM | 1 to 5 µM |
| CC[C@]1(c2cccc(-c3cc(C)ncc3F)c2)C2=C(CC(C)(C)NC2=O)NC2N=NC(C)=C21 (stereo not given in full) [US20250313563, Compound 949327] | > 5 µM | 1 to 5 µM |
| CC[C@]1(c2cccc(N3CCOCC3)c2)C2=C(CC(C)(C)CC2=O)NC2N=NC(C)=C21 (stereo not given in full) [US20250313563, Compound 889581] | < 0.1 µM | < 0.1 µM |
| CC[C@]1(c2cccc(C(F)(F)F)c2)C2=C(N=NC2)NC2=C1C(=O)CC2 [US20250313563, Compound 951565] | 0.1 to 1 µM | < 0.1 µM |
| CC1(C)CC(=O)C2=C(C1)NC1=C(CN=N1)[C@]21COC2(CN(C(=O)C3(F)CCC3)C2)C1 [US20250313563, Compound 947735] | < 0.1 µM | < 0.1 µM |
| Cn1ccc(S(=O)(=O)N2CCC[C@@]3(CC2)C2=CN=NC2NC2=C3C(=O)CC(C)(C)C2)n1 (stereo not given in full) [US20250313563, Compound 932660] | 0.1 to 1 µM | < 0.1 µM |
| CCC1(c2cccc(-c3cc(C)ncc3F)c2)C2=C(CC(C)(C)NC2=O)NC2N=NC(C)=C21 (stereo not given) [US20250313563, Compound 948761] | < 0.1 µM | < 0.1 µM |
| CC[C@]1(c2cccc(-c3cc(OC)ncc3F)c2)C2=CN=NC2NC2=C1C(=O)CC(C)(C)C2 (stereo not given in full) [US20250313563, Compound 944035] | > 5 µM | 1 to 5 µM |
| CC[C@]1(c2cccc(C(F)(F)F)c2)C2=C(N=NC2)NC2=C1C(=O)N(Cc1ccccc1)[C@H]2C [US20250313563, Compound 930331] | 0.1 to 1 µM | < 0.1 µM |
| CCC1(c2cccc(S(C)(=O)=O)c2)C2=C(CC(C)(C)NC2=O)NC2N=NC(C)=C21 (stereo not given) [US20250313563, Compound 947395] | 0.1 to 1 µM | 0.1 to 1 µM |
| CC[C@@]1(c2cccc(-c3ccnc(C)c3F)c2)C2=CN=NC2NC2=C1C(=O)CC(C)(C)C2 (stereo not given in full) [US20250313563, Compound 927347] | < 0.1 µM and 1 to 5 µM | < 0.1 µM and 0.1 to 1 µM |
| CC1(C)CC(=O)C2=C(C1)NC1=C(CN=N1)C21CCN(S(=O)(=O)c2cnc3ccccn23)CC1 [US20250313563, Compound 947610] | < 0.1 µM | < 0.1 µM |
| CC[C@@]1(c2cccc(C3=C(C)SN(C)C3)c2)C2=CN=NC2NC2=C1C(=O)NC1(CCC1)C2 (stereo not given in full) [US20250313563, Compound 950056] | > 5 µM | 0.1 to 1 µM |
| Cn1ccc(S(=O)(=O)N2CCC3(CC2)C2=C(N=NC2)NC2=C3C(=O)CC(C)(C)[C@H]2F)n1 [US20250313563, Compound 951709] | 0.1 to 1 µM | < 0.1 µM |
| CC[C@]1(c2cccc(-c3ccncc3C)c2)C2=C(CC(C)(C)CC2=O)NC2N=NC(C(F)(F)F)=C21 (stereo not given in full) [US20250313563, Compound 947324] | < 0.1 µM | < 0.1 µM |
| CC1(C)CC2=C(C(=O)C1F)[C@]1(CC[C@@H](C(F)(F)F)CC1)C1=CN=NC1N2 (stereo not given in full) [US20250313563, Compound 917134] | 0.1 to 1 µM | < 0.1 µM |

Source: BindingDB's records for patent US20250313563 (The Broad Institute, 2025)
